Data taken from PMC3831292 (Frontiers in Pharmacology, 2013).

What was measured:
Experiment in all cases: two-electrode voltage clamp, Xenopus oocytes
Assay type in all cases: cell-based
hTRESK (K2P18.1, KCNK18) = biological target: T1, hTRESK (K2P18.1, KCNK18) (Homo sapiens, UniProt Q7Z418); conditions: read-out: TRESK
T1 construct: full-length cDNA in plasmid pEXO; cRNA injected into Xenopus laevis oocytes
T1 sequence (Q7Z418 1-384): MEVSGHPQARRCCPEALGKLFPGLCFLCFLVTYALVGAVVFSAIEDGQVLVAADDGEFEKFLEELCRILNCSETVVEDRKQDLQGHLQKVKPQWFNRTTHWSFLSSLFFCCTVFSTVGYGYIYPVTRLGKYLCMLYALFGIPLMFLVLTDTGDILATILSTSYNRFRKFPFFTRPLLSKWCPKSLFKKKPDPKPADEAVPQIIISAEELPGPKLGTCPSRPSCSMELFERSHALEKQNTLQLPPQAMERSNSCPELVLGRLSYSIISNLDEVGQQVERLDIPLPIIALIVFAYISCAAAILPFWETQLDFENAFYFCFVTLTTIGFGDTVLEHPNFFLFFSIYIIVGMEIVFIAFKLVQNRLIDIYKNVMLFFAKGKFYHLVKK
From the text: two-electrode voltage clamp, Xenopus oocytes on hTRESK (K2P18.1, KCNK18)

hTASK-3 (K2P9.1, KCNK9) = biological target: T2, hTASK-3 (K2P9.1, KCNK9) (Homo sapiens, UniProt Q9NPC2); conditions: read-out: TASK-3
T2 construct: full-length cDNA in pBR4-TOPO (mutants in pCDNA3); cRNA injected into Xenopus laevis oocytes
From the text: two-electrode voltage clamp, Xenopus oocytes on hTASK-3 (K2P9.1, KCNK9)

hTASK-1 (K2P3.1, KCNK3) = biological target: T3, hTASK-1 (K2P3.1, KCNK3) (Homo sapiens, UniProt O14649); conditions: read-out: TASK-1
T3 construct: full-length cDNA in pIRES-CD8 vector; cRNA injected into Xenopus laevis oocytes
From the text: two-electrode voltage clamp, Xenopus oocytes on hTASK-1 (K2P3.1, KCNK3)

T2 sequence (Q9NPC2 whole entry): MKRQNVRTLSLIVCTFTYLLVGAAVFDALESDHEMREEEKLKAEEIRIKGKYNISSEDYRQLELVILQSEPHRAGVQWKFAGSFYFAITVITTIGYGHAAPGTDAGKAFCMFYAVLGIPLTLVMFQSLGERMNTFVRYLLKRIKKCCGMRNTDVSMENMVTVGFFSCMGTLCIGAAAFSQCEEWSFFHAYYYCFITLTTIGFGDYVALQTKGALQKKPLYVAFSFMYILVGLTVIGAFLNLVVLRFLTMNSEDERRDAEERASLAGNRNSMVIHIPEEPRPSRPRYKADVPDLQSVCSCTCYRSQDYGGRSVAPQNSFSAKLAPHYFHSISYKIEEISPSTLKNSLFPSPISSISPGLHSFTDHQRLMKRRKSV
T3 sequence (O14649 whole entry): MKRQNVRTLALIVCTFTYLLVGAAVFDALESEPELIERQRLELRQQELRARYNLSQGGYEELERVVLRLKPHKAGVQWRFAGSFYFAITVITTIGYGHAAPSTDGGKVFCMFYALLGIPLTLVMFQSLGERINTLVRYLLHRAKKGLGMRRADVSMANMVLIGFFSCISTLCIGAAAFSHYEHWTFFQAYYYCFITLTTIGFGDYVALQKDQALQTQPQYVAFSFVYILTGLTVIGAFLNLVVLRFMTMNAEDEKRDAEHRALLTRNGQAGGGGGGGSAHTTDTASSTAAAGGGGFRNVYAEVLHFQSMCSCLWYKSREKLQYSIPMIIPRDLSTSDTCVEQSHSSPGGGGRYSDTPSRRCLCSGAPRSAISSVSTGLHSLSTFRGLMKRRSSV

SMILES | IC50 (hTRESK (K2P18.1, KCNK18)) | IC50 (hTASK-3 (K2P9.1, KCNK9)) | IC50 (hTASK-1 (K2P3.1, KCNK3))
COc1cc(CNC(=O)CCCC/C=C/C(C)C)ccc1O [capsaicin] | 70.2 ± 5.3 µM | 41.8 ± 3.6 µM | 61.1 ± 4 µM
O=C(/C=C/C=C/c1ccc2c(c1)OCO2)N1CCCCC1 [piperine] | 231 ± 105 µM | 133 ± 5.9 µM | 
CCCCC[C@H](O)CC(=O)CCc1ccc(O)c(OC)c1 [6-gingerol] | 155 ± 70.9 µM | 385 ± 55.6 µM | 227 ± 46.5 µM
CC1(C)CCC[C@]2(C)[C@@H](C=O)C(C=O)=CC[C@@H]12 [polygodial] |  | 328 ± 24.7 µM | 485 ± 18.2 µM
